Measurements as given in ChEMBL document CHEMBL1201862, “PubChem BioAssay data set” (2004).
The source made the active and inactive calls.

Legend:
[1] = biological target: Insulin-like growth factor 1 receptor (Homo sapiens, UniProt P08069); experiment: Navigating the Kinome. Panel member name: IGF1R; type: functional
[2] = biological target: Tyrosine-protein kinase BTK (Homo sapiens, UniProt Q06187); type: functional
[3] = biological target: Macrophage-stimulating protein receptor (Homo sapiens, UniProt Q04912); experiment: Navigating the Kinome. Panel member name: MST1R; type: functional
[4] = biological target: Mitogen-activated protein kinase kinase kinase kinase 4 (Homo sapiens, UniProt O95819); type: functional
[5] = biological target: Dual specificity tyrosine-phosphorylation-regulated kinase 1B (Homo sapiens, UniProt Q9Y463); experiment: Navigating the Kinome. Panel member name: DYRK1B; type: functional
[6] = biological target: Mitogen-activated protein kinase 14 (Homo sapiens, UniProt Q16539); type: functional;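 further: part of a kinome-wide panel, MAPK14 entry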
[7] = biological target: Tyrosine-protein kinase receptor TYRO3 (Homo sapiens, UniProt Q06418); type: functional;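 further: TYRO3 value obtained as one member of a kinome-wide profiling panel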
[8] = biological target: Glycogen synthase kinase-3 beta (Homo sapiens, UniProt P49841); type: functional;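 further: value comes from a broad kinome profiling panel, with GSK3B as the panel member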
[9] = biological target: Macrophage colony-stimulating factor 1 receptor (Homo sapiens, UniProt P07333); type: functional;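 further: value comes from the Navigating the Kinome screening panel, CSF1R member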
[10] = biological target: ALK tyrosine kinase receptor (Homo sapiens, UniProt Q9UM73); type: functional;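 further: ALK tested as one member of a kinase panel screen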
[11] = biological target: Serine/threonine-protein kinase pim-1 (Homo sapiens, UniProt P11309); type: functional
[12] = biological target: T1, Tyrosine-protein kinase JAK3 (Homo sapiens, UniProt P52333); type: functional
T1 sequence (P52333 whole entry): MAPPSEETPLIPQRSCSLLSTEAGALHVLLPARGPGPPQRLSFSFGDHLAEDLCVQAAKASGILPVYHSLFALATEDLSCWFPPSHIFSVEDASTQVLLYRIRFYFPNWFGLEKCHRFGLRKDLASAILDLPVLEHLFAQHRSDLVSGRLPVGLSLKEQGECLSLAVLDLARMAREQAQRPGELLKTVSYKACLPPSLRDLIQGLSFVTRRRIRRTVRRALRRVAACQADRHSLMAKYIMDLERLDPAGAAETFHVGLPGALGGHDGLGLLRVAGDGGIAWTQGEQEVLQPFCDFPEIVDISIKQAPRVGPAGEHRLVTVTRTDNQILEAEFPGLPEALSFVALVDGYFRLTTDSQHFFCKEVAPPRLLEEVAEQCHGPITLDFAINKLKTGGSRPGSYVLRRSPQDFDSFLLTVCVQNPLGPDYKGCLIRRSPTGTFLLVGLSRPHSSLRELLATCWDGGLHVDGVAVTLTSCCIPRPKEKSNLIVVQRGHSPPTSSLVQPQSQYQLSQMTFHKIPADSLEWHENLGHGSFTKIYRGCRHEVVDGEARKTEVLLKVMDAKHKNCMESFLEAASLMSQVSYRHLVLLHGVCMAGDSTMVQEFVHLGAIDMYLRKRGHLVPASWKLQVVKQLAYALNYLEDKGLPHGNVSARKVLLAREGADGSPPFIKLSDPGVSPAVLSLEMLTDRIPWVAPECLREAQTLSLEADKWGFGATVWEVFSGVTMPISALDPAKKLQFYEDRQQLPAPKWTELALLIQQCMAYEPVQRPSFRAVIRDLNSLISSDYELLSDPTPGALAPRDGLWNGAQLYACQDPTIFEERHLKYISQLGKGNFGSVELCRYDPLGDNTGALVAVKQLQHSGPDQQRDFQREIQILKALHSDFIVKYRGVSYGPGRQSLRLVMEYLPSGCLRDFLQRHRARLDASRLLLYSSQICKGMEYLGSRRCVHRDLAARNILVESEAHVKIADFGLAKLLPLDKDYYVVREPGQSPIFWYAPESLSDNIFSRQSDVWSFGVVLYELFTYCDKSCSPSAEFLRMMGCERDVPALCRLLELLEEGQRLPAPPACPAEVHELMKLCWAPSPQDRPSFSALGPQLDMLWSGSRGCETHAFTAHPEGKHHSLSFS

[13] = biological target: Cyclin-dependent kinase 7 (Homo sapiens, UniProt P50613); type: functional;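 further: value comes from a kinome-wide kinase profiling panel in which CDK7 is one member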
[14] = biological target: Dual specificity mitogen-activated protein kinase kinase 2 (Homo sapiens, UniProt P36507); experiment: Navigating the Kinome. Panel member name: MAP2K2; type: functional
[15] = biological target: Cyclin-dependent kinase 9 (Homo sapiens, UniProt P50750); type: functional;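 further: value from the CDK9 entry of a kinome-spanning kinase panel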
[16] = biological target: 5'-AMP-activated protein kinase catalytic subunit alpha-1 (Homo sapiens, UniProt Q13131); type: functional
[17] = biological target: Dual specificity protein kinase CLK2 (Homo sapiens, UniProt P49760); type: functional
[18] = biological target: Activated CDC42 kinase 1 (Homo sapiens, UniProt Q07912); experiment: Navigating the Kinome. Panel member name: ACK1; type: functional
[19] = biological target: T2, Mitochondrial peptide methionine sulfoxide reductase (Bos taurus, UniProt P54149); experiment: Absorbance-based biochemical high throughput dose response assay for activators of Methionine sulfoxide reductase A (MsrA).; type: functional
T2 sequence (P54149 whole entry): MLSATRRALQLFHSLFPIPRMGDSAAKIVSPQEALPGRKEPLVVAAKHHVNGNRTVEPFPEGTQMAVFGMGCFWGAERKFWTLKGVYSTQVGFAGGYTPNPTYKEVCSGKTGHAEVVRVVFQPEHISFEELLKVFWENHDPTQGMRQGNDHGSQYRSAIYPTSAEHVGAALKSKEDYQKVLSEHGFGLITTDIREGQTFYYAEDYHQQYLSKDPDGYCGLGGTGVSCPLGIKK

[20] = biological target: T3, Tyrosyl-DNA phosphodiesterase 2 (Homo sapiens, UniProt O95551); experiment: potency against TDP2 phosphodiesterase activity – biochemical, epi absorbance, IC50, dose response (AID 743297)
T3 sequence (O95551 whole entry): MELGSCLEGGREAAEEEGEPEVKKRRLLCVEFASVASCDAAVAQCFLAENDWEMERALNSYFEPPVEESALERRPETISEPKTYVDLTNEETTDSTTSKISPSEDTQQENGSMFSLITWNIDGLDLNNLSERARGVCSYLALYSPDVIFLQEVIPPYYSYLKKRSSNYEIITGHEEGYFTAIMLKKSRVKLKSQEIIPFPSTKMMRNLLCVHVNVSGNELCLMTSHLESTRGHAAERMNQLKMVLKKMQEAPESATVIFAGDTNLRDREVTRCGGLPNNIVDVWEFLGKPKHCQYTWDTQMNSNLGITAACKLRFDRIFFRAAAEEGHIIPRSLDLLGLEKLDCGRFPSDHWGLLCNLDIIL

Sequence of Activated CDC42 kinase 1 (Q07912 whole entry): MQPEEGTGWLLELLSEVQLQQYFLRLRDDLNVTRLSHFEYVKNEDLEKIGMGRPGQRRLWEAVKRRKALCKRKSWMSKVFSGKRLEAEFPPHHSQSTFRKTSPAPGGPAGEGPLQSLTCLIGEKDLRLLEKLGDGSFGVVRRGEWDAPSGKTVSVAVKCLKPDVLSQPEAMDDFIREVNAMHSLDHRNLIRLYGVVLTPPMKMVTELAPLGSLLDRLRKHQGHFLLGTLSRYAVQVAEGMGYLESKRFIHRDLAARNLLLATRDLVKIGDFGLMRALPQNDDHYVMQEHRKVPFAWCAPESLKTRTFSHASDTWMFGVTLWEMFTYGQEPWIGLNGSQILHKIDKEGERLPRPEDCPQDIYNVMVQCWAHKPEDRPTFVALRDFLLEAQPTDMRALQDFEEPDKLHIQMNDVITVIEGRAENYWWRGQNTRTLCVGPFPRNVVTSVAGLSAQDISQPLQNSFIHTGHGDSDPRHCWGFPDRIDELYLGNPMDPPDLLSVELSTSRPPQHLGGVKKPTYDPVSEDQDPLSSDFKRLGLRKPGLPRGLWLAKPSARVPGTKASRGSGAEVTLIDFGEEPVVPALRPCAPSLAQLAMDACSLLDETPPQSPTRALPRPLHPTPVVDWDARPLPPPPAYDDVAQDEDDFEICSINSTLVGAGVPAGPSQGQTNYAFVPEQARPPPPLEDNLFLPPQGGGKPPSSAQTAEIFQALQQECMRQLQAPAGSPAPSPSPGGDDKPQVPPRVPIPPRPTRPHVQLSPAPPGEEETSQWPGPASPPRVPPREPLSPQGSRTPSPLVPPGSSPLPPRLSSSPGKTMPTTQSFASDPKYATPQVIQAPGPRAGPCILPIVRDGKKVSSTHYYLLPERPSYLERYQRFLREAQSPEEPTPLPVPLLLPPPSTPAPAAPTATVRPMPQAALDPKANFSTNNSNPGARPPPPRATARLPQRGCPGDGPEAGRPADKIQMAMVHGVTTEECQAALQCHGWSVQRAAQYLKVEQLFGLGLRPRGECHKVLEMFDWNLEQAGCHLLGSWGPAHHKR
Sequence of Macrophage colony-stimulating factor 1 receptor (P07333 whole entry): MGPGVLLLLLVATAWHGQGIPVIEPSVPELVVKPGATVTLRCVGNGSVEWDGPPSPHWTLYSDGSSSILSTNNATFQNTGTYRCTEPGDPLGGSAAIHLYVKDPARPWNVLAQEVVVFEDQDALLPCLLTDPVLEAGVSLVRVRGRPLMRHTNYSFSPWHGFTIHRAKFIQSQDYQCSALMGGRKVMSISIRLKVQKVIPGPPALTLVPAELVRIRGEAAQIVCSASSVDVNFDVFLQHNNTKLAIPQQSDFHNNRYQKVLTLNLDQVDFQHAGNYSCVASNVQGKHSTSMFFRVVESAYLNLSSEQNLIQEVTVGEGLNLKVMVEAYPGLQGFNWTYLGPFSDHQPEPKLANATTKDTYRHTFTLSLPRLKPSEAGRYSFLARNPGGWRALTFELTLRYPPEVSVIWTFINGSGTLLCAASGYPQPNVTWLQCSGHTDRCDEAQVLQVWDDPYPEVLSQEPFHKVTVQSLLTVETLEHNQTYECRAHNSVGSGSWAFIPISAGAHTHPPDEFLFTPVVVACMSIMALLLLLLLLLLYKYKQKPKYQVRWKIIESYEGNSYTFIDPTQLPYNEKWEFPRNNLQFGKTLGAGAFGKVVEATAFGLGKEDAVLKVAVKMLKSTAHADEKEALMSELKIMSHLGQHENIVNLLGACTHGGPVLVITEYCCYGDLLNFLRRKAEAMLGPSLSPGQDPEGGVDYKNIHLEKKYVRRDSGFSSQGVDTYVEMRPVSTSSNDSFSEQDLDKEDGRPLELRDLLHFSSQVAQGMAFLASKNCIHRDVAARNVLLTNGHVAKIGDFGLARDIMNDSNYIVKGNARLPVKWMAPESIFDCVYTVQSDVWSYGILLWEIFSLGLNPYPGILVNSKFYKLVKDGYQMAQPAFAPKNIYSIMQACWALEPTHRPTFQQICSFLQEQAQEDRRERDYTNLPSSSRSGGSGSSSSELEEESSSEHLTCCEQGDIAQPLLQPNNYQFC
Sequence of Macrophage-stimulating protein receptor (Q04912 25-304 limits assumed): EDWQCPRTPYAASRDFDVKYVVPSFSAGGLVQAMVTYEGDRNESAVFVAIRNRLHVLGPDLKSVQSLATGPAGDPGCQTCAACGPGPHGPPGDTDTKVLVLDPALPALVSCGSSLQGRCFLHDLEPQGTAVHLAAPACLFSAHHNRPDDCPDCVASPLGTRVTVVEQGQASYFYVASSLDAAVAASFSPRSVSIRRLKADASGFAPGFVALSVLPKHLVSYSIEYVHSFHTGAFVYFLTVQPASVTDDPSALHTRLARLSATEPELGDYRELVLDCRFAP
Sequence of Macrophage-stimulating protein receptor (Q04912 310-1400 limits assumed): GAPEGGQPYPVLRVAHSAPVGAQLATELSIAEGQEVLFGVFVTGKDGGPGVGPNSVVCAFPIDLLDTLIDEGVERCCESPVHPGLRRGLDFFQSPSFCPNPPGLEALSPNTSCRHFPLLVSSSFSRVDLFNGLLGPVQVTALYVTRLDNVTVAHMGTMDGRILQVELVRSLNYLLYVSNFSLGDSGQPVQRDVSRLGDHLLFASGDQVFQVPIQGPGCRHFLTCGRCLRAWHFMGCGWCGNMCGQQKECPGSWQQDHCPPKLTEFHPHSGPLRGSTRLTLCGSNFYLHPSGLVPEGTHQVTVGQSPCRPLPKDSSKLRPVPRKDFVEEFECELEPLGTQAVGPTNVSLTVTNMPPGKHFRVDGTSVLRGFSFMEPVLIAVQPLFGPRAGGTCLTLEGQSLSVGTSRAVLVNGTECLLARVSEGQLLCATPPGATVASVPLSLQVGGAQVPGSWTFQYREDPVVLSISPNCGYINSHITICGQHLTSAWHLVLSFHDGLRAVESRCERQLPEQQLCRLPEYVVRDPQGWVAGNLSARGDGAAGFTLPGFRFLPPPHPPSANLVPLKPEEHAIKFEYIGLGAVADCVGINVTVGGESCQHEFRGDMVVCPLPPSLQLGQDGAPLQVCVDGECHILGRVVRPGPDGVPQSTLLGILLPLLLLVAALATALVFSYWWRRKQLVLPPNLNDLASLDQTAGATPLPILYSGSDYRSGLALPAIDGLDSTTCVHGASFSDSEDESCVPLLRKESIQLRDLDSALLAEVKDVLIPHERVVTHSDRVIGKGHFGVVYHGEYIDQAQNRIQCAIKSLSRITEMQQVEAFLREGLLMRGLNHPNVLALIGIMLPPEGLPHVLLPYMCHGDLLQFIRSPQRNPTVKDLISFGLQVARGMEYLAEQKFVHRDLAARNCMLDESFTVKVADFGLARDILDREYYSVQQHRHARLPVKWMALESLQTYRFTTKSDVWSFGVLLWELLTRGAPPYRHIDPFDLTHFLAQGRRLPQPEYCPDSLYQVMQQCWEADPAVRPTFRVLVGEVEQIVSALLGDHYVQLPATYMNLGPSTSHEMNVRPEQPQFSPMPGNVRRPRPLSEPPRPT
Sequence of Cyclin-dependent kinase 9 (P50750 whole entry): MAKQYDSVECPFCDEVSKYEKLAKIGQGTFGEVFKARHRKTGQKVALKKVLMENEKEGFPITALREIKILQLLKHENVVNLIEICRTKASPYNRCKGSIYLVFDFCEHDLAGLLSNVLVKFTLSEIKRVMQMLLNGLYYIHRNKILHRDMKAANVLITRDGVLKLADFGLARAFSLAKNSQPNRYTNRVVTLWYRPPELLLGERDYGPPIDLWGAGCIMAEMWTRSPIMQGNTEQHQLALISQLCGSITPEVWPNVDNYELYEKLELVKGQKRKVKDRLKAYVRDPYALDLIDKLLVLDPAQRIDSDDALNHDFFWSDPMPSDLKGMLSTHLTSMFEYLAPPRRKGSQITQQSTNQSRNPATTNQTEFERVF
Sequence of Cyclin-dependent kinase 7 (P50613 whole entry): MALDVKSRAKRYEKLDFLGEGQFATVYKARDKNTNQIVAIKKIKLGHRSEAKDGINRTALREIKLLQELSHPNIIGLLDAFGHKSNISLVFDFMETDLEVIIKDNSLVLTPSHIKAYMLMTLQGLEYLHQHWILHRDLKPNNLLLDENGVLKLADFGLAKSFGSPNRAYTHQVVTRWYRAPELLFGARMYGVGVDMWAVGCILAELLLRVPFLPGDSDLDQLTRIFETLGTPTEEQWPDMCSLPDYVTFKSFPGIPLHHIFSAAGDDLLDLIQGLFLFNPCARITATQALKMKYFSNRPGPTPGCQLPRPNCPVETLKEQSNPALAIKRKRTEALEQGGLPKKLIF
Sequence of Dual specificity protein kinase CLK2 (P49760 whole entry): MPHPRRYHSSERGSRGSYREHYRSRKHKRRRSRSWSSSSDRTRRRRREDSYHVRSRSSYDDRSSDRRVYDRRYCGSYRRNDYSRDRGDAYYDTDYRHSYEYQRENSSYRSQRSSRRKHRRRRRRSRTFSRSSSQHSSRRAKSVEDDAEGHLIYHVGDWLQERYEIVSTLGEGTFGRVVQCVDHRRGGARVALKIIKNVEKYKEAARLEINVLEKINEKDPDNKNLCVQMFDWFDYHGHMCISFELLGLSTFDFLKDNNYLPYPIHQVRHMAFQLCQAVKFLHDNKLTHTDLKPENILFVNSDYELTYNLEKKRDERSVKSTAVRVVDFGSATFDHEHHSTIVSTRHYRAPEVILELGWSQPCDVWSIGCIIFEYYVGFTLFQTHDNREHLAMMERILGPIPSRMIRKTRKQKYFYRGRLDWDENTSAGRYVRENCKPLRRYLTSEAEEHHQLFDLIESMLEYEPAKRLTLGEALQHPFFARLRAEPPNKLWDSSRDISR
Sequence of Glycogen synthase kinase-3 beta (P49841 whole entry): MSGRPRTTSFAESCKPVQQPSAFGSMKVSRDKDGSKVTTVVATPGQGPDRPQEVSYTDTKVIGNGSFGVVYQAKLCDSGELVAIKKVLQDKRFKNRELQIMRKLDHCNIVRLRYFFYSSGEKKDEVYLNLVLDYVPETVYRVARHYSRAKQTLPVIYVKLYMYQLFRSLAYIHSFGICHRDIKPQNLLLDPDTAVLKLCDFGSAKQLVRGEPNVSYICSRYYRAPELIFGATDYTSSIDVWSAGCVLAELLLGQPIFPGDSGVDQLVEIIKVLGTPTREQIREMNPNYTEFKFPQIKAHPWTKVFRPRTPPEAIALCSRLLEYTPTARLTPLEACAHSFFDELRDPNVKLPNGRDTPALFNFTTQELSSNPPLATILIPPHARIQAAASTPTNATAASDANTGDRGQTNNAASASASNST

Row | Ki [1] | Ki [2] | Ki [3] | Ki [4] | Ki [5] | Ki [6] | Ki [7] | Ki [8] | Ki [9] | Ki [10] | Ki [11] | Ki [12] | Ki [13] | Ki [14] | Ki [15] | Ki [16] | Ki [17] | Ki [18] | SMILES | EC50 [19] | IC50 [20] | further results
1 | > 2510 nM (inactive) | > 6310 nM (inactive) | > 3980 nM (inactive) | > 5010 nM (inactive) | > 2510 nM (inactive) | > 3980 nM (inactive) | > 3160 nM (inactive) | > 3980 nM (inactive) | > 2510 nM (inactive) | > 6310 nM (inactive) | > 6310 nM (inactive) | > 5010 nM (inactive) | > 3980 nM (inactive) | > 3980 nM (inactive) | > 1580 nM (inactive) | > 3160 nM (inactive) | > 3980 nM (inactive) | > 3980 nM (inactive) | COc1cccc(CNC(=O)c2cnc(-c3ccncc3)nc2)c1 |  |  | 
2 |  |  |  |  |  |  |  |  |  |  |  |  |  |  |  |  |  |  | O=C(COC(=O)c1ccc([N+](=O)[O-])s1)Nc1ccc(F)cc1 | > 104000 nM (inactive) | 64200 nM (inactive) | 
3 |  |  |  |  |  |  |  |  |  |  |  |  |  |  |  |  |  |  | CCN(CC)CCCC(C)n1c2nc(=O)[nH]c(=O)c-2nc2cc(Cl)ccc21 (configuration not stated) | 32900 nM (inactive) | 10500 nM (inactive) | 
4 | > 2000 nM (inactive) | > 1260 nM (inactive) | 100 nM (active) | > 3.16 nM (inactive) | 2.51 nM (active) | > 3980 nM (inactive) | > 2000 nM (inactive) | 50.1 nM (active) | 200 nM (active) | > 1260 nM (inactive) | 1000 nM (active) | 50.1 nM (active) | 251 nM (active) | 50.1 nM (active) | 1.26 nM (active) | 126 nM (active) | 7.94 nM (active) | 3160 nM (active) | OC1CCC(Nc2nc(Cl)cc(-c3c[nH]c4ncccc34)n2)CC1 (configuration not stated) |  |  | pKi [3]: 7; pKi [5]: 8.6; pKi [8]: 7.3; pKi [9]: 6.7; pKi [11]: 6; pKi [12]: 7.3; pKi [13]: 6.6; pKi [14]: 7.3; pKi [15]: 8.9; pKi [16]: 6.9; pKi [17]: 8.1; pKi [18]: 5.5
